Source: patent publication US10711004B2 (Genentech, Inc., priority 2018, dated 2020)
Read-outs that look alike come from different tables or passages of the source.

Molecular target: human TRPA1 channel (Homo sapiens (Human), UniProt O75762)
Experiment: hTRPA1 CHO Ca2+ FLIPR Tetra assay, block of cinnamaldehyde induced calcium influx
Format: cell-based
Conditions: for IC50: CHO cells expressing TRPA1, Hill coefficient fixed to 1.5; for TRPA1 IC50 compared with 3-azabicyclo[3.1.0]hexene linker and cyclobutylene linker analogues: bicyclo[3.1.0]hexene linker compounds versus same-substituent analogues (compounds 16, 191; 26, 1)
Summary of the method: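 Calcium-dye-loaded TRPA1-expressing CHO cells in HBSS/20 mM HEPES pH 7.4, 0.02% BSA were preincubated with compound for 10 or 90 min at room temperature. Calcium influx evoked by roughly an EC50 concentration of cinnamaldehyde was then read on FLIPR Tetra; IC50 came from curve fits with a fixed Hill coefficient.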

[1] = read-out: hTRPA1 IC50 (10 min), compounds incubated 10 minutes at room temperature before cinnamaldehyde agonist
[2] = read-out: hTRPA1 IC50 (90 min), compounds incubated 90 minutes at room temperature before cinnamaldehyde agonist

Sequence of human TRPA1 channel (O75762 whole entry): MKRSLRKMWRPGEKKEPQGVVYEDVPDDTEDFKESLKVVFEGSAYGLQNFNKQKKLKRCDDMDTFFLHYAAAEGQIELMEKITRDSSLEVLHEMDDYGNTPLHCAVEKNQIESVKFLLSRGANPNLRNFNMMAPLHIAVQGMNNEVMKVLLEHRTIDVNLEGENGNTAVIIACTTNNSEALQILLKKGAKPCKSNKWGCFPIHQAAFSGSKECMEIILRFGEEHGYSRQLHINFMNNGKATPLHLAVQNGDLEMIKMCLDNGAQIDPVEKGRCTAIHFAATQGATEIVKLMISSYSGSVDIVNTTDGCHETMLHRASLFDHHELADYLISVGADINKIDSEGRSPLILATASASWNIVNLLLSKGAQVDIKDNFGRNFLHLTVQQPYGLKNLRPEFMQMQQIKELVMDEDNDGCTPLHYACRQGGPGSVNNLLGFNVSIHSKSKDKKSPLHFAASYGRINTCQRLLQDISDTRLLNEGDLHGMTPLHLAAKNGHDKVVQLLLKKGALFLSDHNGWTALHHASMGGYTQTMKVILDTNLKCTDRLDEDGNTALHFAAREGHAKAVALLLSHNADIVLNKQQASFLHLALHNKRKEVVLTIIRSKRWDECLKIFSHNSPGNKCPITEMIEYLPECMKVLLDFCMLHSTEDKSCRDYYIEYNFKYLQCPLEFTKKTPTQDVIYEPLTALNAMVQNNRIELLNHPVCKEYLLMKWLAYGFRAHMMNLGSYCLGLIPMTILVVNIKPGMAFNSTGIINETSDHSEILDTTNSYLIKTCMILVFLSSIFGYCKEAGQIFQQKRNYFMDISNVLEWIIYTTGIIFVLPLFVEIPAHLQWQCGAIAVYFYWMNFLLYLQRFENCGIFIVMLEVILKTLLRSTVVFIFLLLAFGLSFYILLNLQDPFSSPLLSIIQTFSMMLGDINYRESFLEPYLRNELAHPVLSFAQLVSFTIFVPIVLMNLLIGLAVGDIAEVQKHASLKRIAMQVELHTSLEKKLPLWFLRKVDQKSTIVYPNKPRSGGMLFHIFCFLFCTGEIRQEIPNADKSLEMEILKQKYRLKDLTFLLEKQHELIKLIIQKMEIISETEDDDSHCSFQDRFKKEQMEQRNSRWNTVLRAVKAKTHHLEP

Row | SMILES | IC50 [1] | IC50 [2] | TRPA1 IC50 compared with 3-azabicyclo[3.1.0]hexene linker and cyclobutylene linker analogues
1 | O=c1c2cccnc2cnn1Cc1nc([C@H]2[C@@H]3CN(c4cc(Cl)ccn4)C[C@@H]32)no1 [Example Compound 167, 6-((3-((1R,5S,6r)-3-(4-chloropyridin-2-yl)-3-azabicyclo[3.1.0]hexan-6-yl)-1,2,4-oxadiazol-5-yl)methyl)pyrido[2,3-d]pyridazin-5(6H)-one] | 51.1 nM | 46 nM | –
2 | Cc1ccnc2ncn(Cc3nc([C@H]4[C@@H]5CN(c6cc(Cl)ccn6)C[C@@H]54)no3)c(=O)c12 [Example Compound 168, 3-((3-((1R,5S,6r)-3-(4-chloropyridin-2-yl)-3-azabicyclo[3.1.0]hexan-6-yl)-1,2,4-oxadiazol-5-yl)methyl)-5-methylpyrido[2,3-d]pyrimidin-4(3H)-one] | 50.8 nM | – | –
3 | Cn1cc(-c2cccc(N3C[C@@H]4[C@H](C3)[C@H]4c3noc(Cn4ncc5ncccc5c4=O)n3)c2)cn1 [Example Compound 169, 6-((3-((1R,5S,6r)-3-(3-(1-methyl-1H-pyrazol-4-yl)phenyl)-3-azabicyclo[3.1.0]hexan-6-yl)-1,2,4-oxadiazol-5-yl)methyl)pyrido[2,3-d]pyridazin-5(6H)-one] | 43 nM | 41 nM | –
4 | Cn1cnc2ncn(Cc3nc([C@H]4[C@@H]5CN(c6cc(Cl)c(F)cn6)C[C@@H]54)no3)c(=O)c21 [Example Compound 170, 1-((3-((1R,5S,6r)-3-(4-chloro-5-fluoropyridin-2-yl)-3-azabicyclo[3.1.0]hexan-6-yl)-1,2,4-oxadiazol-5-yl)methyl)-7-methyl-1,7-dihydro-6H-purin-6-one] | 233 nM | 130 nM | –
5 | Cn1cnc2ncn(Cc3nc([C@H]4[C@@H]5CN(c6cccc(C#N)n6)C[C@@H]54)no3)c(=O)c21 [Example Compound 171, 6-((1R,5S,6r)-6-(5-((7-methyl-6-oxo-6,7-dihydro-1H-purin-1-yl)methyl)-1,2,4-oxadiazol-3-yl)-3-azabicyclo[3.1.0]hexan-3-yl)picolinonitrile] | 271 nM | 89 nM | –
6 | Cn1cnc2ncn(Cc3nc([C@@H]4CC[C@@H](c5ccc(F)cc5)C4)no3)c(=O)c21 [Example Compound 172, 1-((3-((1R,3R)-3-(4-fluorophenyl)cyclopentyl)-1,2,4-oxadiazol-5-yl)methyl)-7-methyl-1,7-dihydro-6H-purin-6-one] | 26.6 nM | 18 nM | –
7 | Cn1c(=O)ccc2ncn(Cc3nc([C@H]4[C@@H]5CN(c6cccc(Cl)c6)C[C@@H]54)no3)c(=O)c21 [Example Compound 173, 3-((3-((1R,5S,6r)-3-(3-chlorophenyl)-3-azabicyclo[3.1.0]hexan-6-yl)-1,2,4-oxadiazol-5-yl)methyl)-5-methyl-3,5-dihydropyrido[3,2-d]pyrimidine-4,6-dione] | 3.97 nM | – | –
8 | Cn1c(=O)ccc2ncn(Cc3nc([C@H]4[C@@H]5CN(c6cc(Cl)ccn6)C[C@@H]54)no3)c(=O)c21 [Example Compound 174, 3-((3-((1R,5S,6r)-3-(4-chloropyridin-2-yl)-3-azabicyclo[3.1.0]hexan-6-yl)-1,2,4-oxadiazol-5-yl)methyl)-5-methyl-3,5-dihydropyrido[3,2-d]pyrimidine-4,6-dione] | 60.6 nM | 50 nM | –
9 | Cn1cnc2ncn(Cc3nc([C@H]4[C@@H]5CN(c6ccnc(F)c6)C[C@@H]54)no3)c(=O)c21 [Example Compound 175, 1-((3-((1R,5S,6r)-3-(2-fluoropyridin-4-yl)-3-azabicyclo[3.1.0]hexan-6-yl)-1,2,4-oxadiazol-5-yl)methyl)-7-methyl-1,7-dihydro-6H-purin-6-one] | 420 nM | 73 nM | –
10 | Cn1cnc2ncn(Cc3nc([C@H]4C[C@H](Oc5cccc(F)c5)C4)no3)c(=O)c21 [Example Compound 176, 1-((3-((1r,3r)-3-(3-fluorophenoxy)cyclobutyl)-1,2,4-oxadiazol-5-yl)methyl)-7-methyl-1,7-dihydro-6H-purin-6-one] | 24.3 nM | – | –
11 | Cn1cnc2ncn(Cc3nc([C@H]4C[C@H](Oc5ccc(F)cc5)C4)no3)c(=O)c21 [Example Compound 177, 1-((3-((1r,3r)-3-(4-fluorophenoxy)cyclobutyl)-1,2,4-oxadiazol-5-yl)methyl)-7-methyl-1,7-dihydro-6H-purin-6-one] | 40.1 nM | – | –
12 | Cn1cnc2ncn(Cc3nc([C@H]4C[C@H](Oc5cccc(C#N)c5)C4)no3)c(=O)c21 [Example Compound 178, 3-((1r,3r)-3-(5-((7-methyl-6-oxo-6,7-dihydro-1H-purin-1-yl)methyl)-1,2,4-oxadiazol-3-yl)cyclobutoxy)benzonitrile] | 81.5 nM | – | –
13 | Cn1cc(-c2ccc(N3C[C@@H]4[C@H](C3)[C@H]4c3noc(Cn4cnc5ncn(C)c5c4=O)n3)cc2)cn1 [Example Compound 179, 7-methyl-1-((3-((1R,5S,6r)-3-(4-(1-methyl-1H-pyrazol-4-yl)phenyl)-3-azabicyclo[3.1.0]hexan-6-yl)-1,2,4-oxadiazol-5-yl)methyl)-1,7-dihydro-6H-purin-6-one] | 134 nM | 67 nM | –
14 | O=c1c2cccnc2ncn1Cc1nc([C@H]2[C@@H]3C=C(c4cccc(Cl)c4)C[C@@H]32)no1 [Example Compound 180, 3-((3-((1S,5S,6R)-3-(3-chlorophenyl)bicyclo[3.1.0]hex-2-en-6-yl)-1,2,4-oxadiazol-5-yl)methyl)pyrido[2,3-d]pyrimidin-4(3H)-one] | 23.3 nM | 24 nM | –
15 | O=c1c2cccnc2ncn1Cc1nc([C@@H]2[C@H]3C=C(c4cccc(Cl)c4)C[C@H]32)no1 [Example Compound 181, 3-((3-((1R,5R,6S)-3-(3-chlorophenyl)bicyclo[3.1.0]hex-2-en-6-yl)-1,2,4-oxadiazol-5-yl)methyl)pyrido[2,3-d]pyrimidin-4(3H)-one] | 21.8 nM | 21 nM | –
16 | Cn1cnc2ncn(Cc3nc([C@H]4[C@@H]5CN(c6cc(F)ccn6)C[C@@H]54)no3)c(=O)c21 [Example Compound 182, 1-((3-((1R,5S,6r)-3-(4-fluoropyridin-2-yl)-3-azabicyclo[3.1.0]hexan-6-yl)-1,2,4-oxadiazol-5-yl)methyl)-7-methyl-1,7-dihydro-6H-purin-6-one] | 194 nM | 43 nM | –
17 | O=c1c2cccnc2ncn1Cc1nc([C@H]2[C@@H]3CN(c4cc(Cl)ccn4)C[C@@H]32)no1 [Example Compound 183, 3-((3-((1R,5S,6r)-3-(4-chloropyridin-2-yl)-3-azabicyclo[3.1.0]hexan-6-yl)-1,2,4-oxadiazol-5-yl)methyl)pyrido[2,3-d]pyrimidin-4(3H)-one] | 65.1 nM | 52 nM | –
18 | Cn1cnc2ncn(Cc3nc([C@H]4[C@@H]5C=C(c6cccc(Cl)c6)C[C@@H]54)no3)c(=O)c21 [Example Compound 184, 1-((3-((1S,5S,6R)-3-(3-chlorophenyl)bicyclo[3.1.0]hex-2-en-6-yl)-1,2,4-oxadiazol-5-yl)methyl)-7-methyl-1,7-dihydro-6H-purin-6-one] | 8.83 nM | 1.8 nM | improved TRPA1 IC50 values
19 | Cn1cnc2ncn(Cc3nc([C@@H]4[C@H]5C=C(c6cccc(Cl)c6)C[C@H]54)no3)c(=O)c21 [Example Compound 185, 1-((3-((1R,5R,6S)-3-(3-chlorophenyl)bicyclo[3.1.0]hex-2-en-6-yl)-1,2,4-oxadiazol-5-yl)methyl)-7-methyl-1,7-dihydro-6H-purin-6-one] | 18.5 nM | 7.8 nM | improved TRPA1 IC50 values
